“Also recorded” adds a separate entry of the source.
Tests used:
[1] = test system: skin DTH, OXA challenge (pinna thickness); assay: Skin DTH response, hormones given before OXA challenge of previously sensitized ADX animals; assay type: in vivo, rat; conditions: for skin DTH vs vehicle: epinephrine 0.5 mg/kg, corticosterone 5 mg/kg, or both, OXA (0.75%) challenge 2 h after hormone administration
Description: (§1) Young adult, male Sprague Dawley rats (150-300 g) (Harlan Sprague Dawley, Indianapolis, Ind.) were housed in plastic cages in the accredited (American Association of Accreditation of Laboratory Animal Care) animal facilities of The Rockefeller University (New York, N.Y.). The animal room was maintained on a 12 h light-dark cycle (lights on 7 am). Animals were given rat chow and water ad libitum.
(§2) Bilateral adrenalectomy (ADX) was performed using standard aseptic surgical techniques on animals fully anesthetized with the inhalant, methoxyflurane (Metofane; Pitman-Moore, Washington Crossing, N.J.). Sham adrenalectomized (SHAM) animals went through exactly the same procedure as ADX animals except that their adrenals were not removed. ADX animals were maintained on a low normalizing dose of corticosterone (20 μg/ml) administered through drinking choice of water or 3% saline. This was necessary for restoring important permissive functions of corticosterone which are lost following ADX (18-20). […] Unlike constant replacement (via pellets or osmotic pumps), drinking water corticosterone also facilitates the normal termination of a stress-induced ACTH response (22, 23), and simulates the circadian corticosterone rhythm as animals drink at the beginning of the active period (16).
The concentration and timing of each hormone administered is listed in the text and 3 0 figures. […]
DTH was induced by challenging the pinnae of previously sensitized rats with 2,4-dinitro-1-fluorobenzene (DNFB, Sigma, St. Louis, Mo.) or oxazalone (OXA, Sigma, St. Louis, Mo). […] The thickness of both pinnae was recorded using a constant-loading dial micrometer (Mitutoyo, Japan). […] On day 5, baseline pinna thickness was measured. […] Pinna thickness was measured at the times shown. […]
For all experiments, repeated measures were made on each animal. Significant differences between timepoints within a specific leukocyte subpopulation were analyzed using the Student's t-test as a test for significant differences between means. […] Data are expressed as mean ±SEM in all figures. […]

[2] = biological target: T1, corticosteroid binding globulin (Homo sapiens, UniProt P08185); conditions: plasma protein; cited from earlier work
T1 sequence (P08185 23-405): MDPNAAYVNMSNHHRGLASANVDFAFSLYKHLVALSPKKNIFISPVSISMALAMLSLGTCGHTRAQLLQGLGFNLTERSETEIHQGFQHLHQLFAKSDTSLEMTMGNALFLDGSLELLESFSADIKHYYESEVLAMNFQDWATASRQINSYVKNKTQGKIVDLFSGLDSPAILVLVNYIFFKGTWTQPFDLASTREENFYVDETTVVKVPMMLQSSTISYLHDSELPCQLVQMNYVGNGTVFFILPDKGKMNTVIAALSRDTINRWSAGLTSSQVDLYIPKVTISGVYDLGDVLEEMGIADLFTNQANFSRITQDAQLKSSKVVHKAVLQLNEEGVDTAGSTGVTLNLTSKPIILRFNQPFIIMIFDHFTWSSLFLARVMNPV

[3] = test system: DTH reaction mounted against OXA (pinna thickness); assay: Skin DTH response to OXA challenge, hormones given at sensitization (immunization) phase; assay type: in vivo, rat; conditions: hormone ip 2 h before sensitization with 1.5% OXA: epinephrine 0.5 mg/kg, corticosterone 5 mg/kg, or both; OXA ear challenge six days after immunization
Description: as §1
This was necessary for restoring important permissive functions of corticosterone which are lost following ADX (18-20). […] Unlike constant replacement (via pellets or osmotic pumps), drinking water corticosterone also facilitates the normal termination of a stress-induced ACTH response (22, 23), and simulates the circadian corticosterone rhythm as animals drink at the beginning of the active period (16).
No anesthesia was used subsequently. An area of approximately 3×4 cm was shaved on the dorsum. The thickness of both pinnae was recorded using a constant-loading dial micrometer (Mitutoyo, Japan).
On day 5, baseline pinna thickness was measured. […] Left pinnae were treated with vehicle.
The immune reaction induced using the above procedure, is characterized by swelling at the site of challenge, and by an infiltration of monocytes/macrophages and lymphocytes into the epidermis and dermis (29-31). […]

[4] = test system: skin DTH, DNFB challenge (pinna thickness); assay: Skin DTH response, hormones given before DNFB challenge of previously sensitized animals; assay type: in vivo, rat
Description: as §1, §2
The concentration and timing of each hormone administered is listed in the text and 3 0 figures. […] Epinephrine (Research Biochemicals International) was dissolved in sterile water.
DTH was induced by challenging the pinnae of previously sensitized rats with 2,4-dinitro-1-fluorobenzene (DNFB, Sigma, St. Louis, Mo.) or oxazalone (OXA, Sigma, St. Louis, Mo). On day 1 of sensitization, animals were anesthetized with the inhalant, methoxyflurane (Metofane; Pitman-Moore, Washington Crossing, N.J.). No anesthesia was used subsequently. An area of approximately 3×4 cm was shaved on the dorsum. The thickness of both pinnae was recorded using a constant-loading dial micrometer (Mitutoyo, Japan). On days 1 and 2 of sensitization, one hundred microliters of DNFB (1% (w/v) in 4:1, acetone:olive oil) or one hundred microliters of OXA (1.5% (w/v) in ethanol) were applied to the shaved dorsum. On day 5, baseline pinna thickness was measured. On day 6, after stress or hormone administration, the dorsal surface of the right pinnae of all animals was challenged with 50 μl of DNFB (0.5% in 4:1 acetone:olive oil) or OXA (0.75% in ethanol). Left pinnae were treated with vehicle. Pinna thickness was measured at the times shown. Measurements were made (on same relative region of pinna) gently and rapidly to avoid displacing or compressing edema fluid and changing pinna thickness.
The immune reaction induced using the above procedure, is characterized by swelling at the site of challenge, and by an infiltration of monocytes/macrophages and lymphocytes into the epidermis and dermis (29-31). A positive correlation between the intensity of the immune reaction and the increase in pinna thickness has been reported (32, 33). This model for skin DTH reactions has been widely used to monitor cell-mediated immune responses in vivo (30, 34).
For all experiments, repeated measures were made on each animal. Significant differences between timepoints within a specific leukocyte subpopulation were analyzed using the Student's t-test as a test for significant differences between means. […] Data are expressed as mean ±SEM in all figures. A computer statistics package was used for statistical analyses (SYSTAT v5.2.1, Systat Inc., Evanston, Ill.).

[5] = test system: lymphocytes in cervical lymph nodes; assay: Cellularity of cervical lymph nodes draining the site of the skin DTH reaction; assay type: in vivo, rat; conditions: ADX animals, epinephrine 0.5 mg/kg, corticosterone 5 mg/kg, or both, OXA challenge 2 h after administration, 48 h after antigen exposure
Description: Animals were rapidly sacrificed and cervical lymph nodes were dissected and placed in sterile PBS on ice (n=3 per treatment group). Each lymph node was subsequently weighed and disrupted between the frosted ends of two microscope slides. Suspensions of leukocytes were prepared in PBS and stored on ice for cell counting, immunofluorescent staining, and flow cytometry. White blood cell counts and lymphocyte-neutrophil differentials were obtained on a hematology analyzer (F800, Sysmex, McGraw Park, Ill.). Specific leukocyte subtypes were measured by immunofluorescent antibody staining and subsequent analysis using three color flow cytometry (FACScan, Becton Dickinson, San Jose, Calif.). T cells were identified using the following monoclonal antibodies (Caltag, Burlingame, Calif.): CD3-FITC (1F4), CD4-PE (w3/25), CD8-TC (OX8). Briefly, cell suspensions were incubated with antibody for 20 min at room temperature, washed with PBS, and read on the FACScan with 3,000 to 5,000 events being acquired from each preparation. Appropriate isotype controls were used to set the negative criteria. Data were analyzed using Cell Quest software (Becton Dickinson, San Jose, Calif.). For all experiments, repeated measures were made on each animal. Significant differences between timepoints within a specific leukocyte subpopulation were analyzed using the Student's t-test as a test for significant differences between means. […] Data are expressed as mean ±SEM in all figures. A computer statistics package was used for statistical analyses (SYSTAT v5.2.1, Systat Inc., Evanston, Ill.).

Compound | immuno-enhancement of skin DTH compared with epinephrine ([1]; corticosterone 5 mg/kg vs epinephrine 500 μg/kg, OXA challenge 2 h after administration) | skin DTH vs vehicle [1] | binding to corticosteroid binding globulin [2] | DTH response (immune reaction at challenge or recall phase) vs vehicle [3] | skin DTH vs vehicle ([4]; corticosterone 400 μg/ml in drinking water, chronic (6 days), DNFB challenge) | skin DTH vs vehicle ([4]; corticosterone 400 μg/ml in drinking water, chronic (6 days), DNFB challenge, listed as Corticosterone) | skin DTH vs vehicle ([4]; corticosterone 5 mg/kg ip, acute, ADX animals, DNFB challenge two hours after administration) | skin DTH vs vehicle ([4]; corticosterone 5 mg/kg ip, acute, ADX animals, DNFB challenge two hours after administration, listed as Corticosterone) | skin DTH vs vehicle ([4]; corticosterone 100 or 400 μg/ml in drinking water for four hours (acute), adrenal-intact animals, DNFB challenge) | skin DTH vs vehicle ([4]; corticosterone 100 or 400 μg/ml in drinking water for four hours (acute), adrenal-intact animals, DNFB challenge, listed as Corticosterone) | skin DTH vs vehicle ([4]; corticosterone high dose 40 mg/kg, acute, ADX animals, DNFB challenge) | skin DTH vs vehicle ([4]; corticosterone high dose 40 mg/kg, acute, ADX animals, DNFB challenge, listed as Corticosterone) | lymphocyte numbers in cervical lymph nodes vs vehicle [5] | skin DTH vs vehicle ([4]; epinephrine 0.05, 0.25, 0.5 mg/kg, acute, ADX animals, DNFB challenge two hours after administration) | skin DTH vs vehicle ([4]; epinephrine 0.05, 0.25, 0.5 mg/kg, acute, ADX animals, DNFB challenge two hours after administration, listed as Epinephrine) | lymphocyte numbers in cervical lymph nodes vs vehicle ([5]; listed as Epinephrine)
C[C@]12C[C@H](O)[C@H]3[C@@H](CCC4=CC(=O)CC[C@@]43C)[C@@H]1CC[C@@H]2C(=O)CO [corticosterone] | greater than that induced by epinephrine | enhanced skin DTH; also recorded: enhanced DTH response | binds a large proportion of circulating corticosterone | enhance the immune reaction observed during the challenge or recall phase of DTH | significantly suppressed skin DTH | lower DTH responses than control animals | significant enhancement of skin DTH | significantly larger DTH response than vehicle treated animals | significant enhancement of skin DTH; also recorded: enhanced the DTH response | significantly larger DTH response than vehicle treated animals | significantly suppressed skin DTH | lower DTH responses than control animals | significantly larger numbers of lymphocytes in cervical lymph nodes; also recorded: higher lymphocyte numbers in cervical lymph nodes |  |  | 
CNC[C@H](O)c1ccc(O)c(O)c1 [epinephrine, reference compound] |  | enhanced skin DTH; also recorded: enhanced DTH response |  | enhance the immune reaction observed during the challenge or recall phase of DTH |  |  |  |  |  |  |  |  | significantly larger numbers of lymphocytes in cervical lymph nodes | significant dose-dependent enhancement of skin DTH | dose dependent increase in skin DTH | higher lymphocyte numbers in cervical lymph nodes
